As a reminder, the MIC is the smallest concentration in the dilution series that meets the test's criterion for growth inhibition. A higher MIC goes with a less susceptible organism.

The values that follow come from ChEMBL document CHEMBL1158854, “Antimycobacterial polyynes of Devil's Club (Oplopanax horridus), a North American native medicinal plant” (1997).

≈ marks a conversion by molar mass, not a printed value. Calls of active or inactive are those of the source. Some results are limits rather than exact numbers.

One test concerns Candida albicans. Put plainly: Antimicrobial activity against Candida albicans UBC54 by twofold serial microbroth dilution method. It is filed as functional. (Dilution methods test growth across graded concentrations, often in twofold steps.)
Another test concerns Bacillus subtilis. The experiment in a line: Antimicrobial activity against Bacillus subtilis UBC221 by twofold serial microbroth dilution method. It is filed as functional.
For test [1], the system named is Staphylococcus aureus. Put plainly: Antimicrobial activity against methicillin-susceptible Staphylococcus aureus RN4220 by twofold serial microbroth dilution method. In kind it is functional.
Test [2] relates to Escherichia coli. The experiment in a line: Antimicrobial activity against Escherichia coli DC2 by twofold serial microbroth dilution method. It is filed as functional.
Test [3] deals with Staphylococcus aureus. The experiment in a line: Antimicrobial activity against methicillin-resistant Staphylococcus aureus SAP00017 by twofold serial microbroth dilution method. It is filed as functional.
The subject of test [4] is Mycobacterium avium. The experiment in a line: Antimycobacterial activity against isoniazid-resistant Mycobacterium avium at 100 ug/disk by disk diffusion assay. It is filed as functional, organism-based.
Test [5] relates to Mycobacterium tuberculosis. Put plainly: Antimycobacterial activity against Mycobacterium tuberculosis at 100 ug/disk by disk diffusion assay. In kind it is functional, organism-based. Background: Agar diffusion results depend on both activity and mobility in agar.
Test [6] relates to Escherichia coli. Put plainly: Antimicrobial activity against Escherichia coli UB1005 by twofold serial microbroth dilution method. It is filed as functional.
Test [7] deals with Pseudomonas aeruginosa. The experiment in a line: Antimicrobial activity against Pseudomonas aeruginosa K799 by twofold serial microbroth dilution method. It is filed as functional.
Test [8] deals with Pseudomonas aeruginosa. Put plainly: Antimicrobial activity against Pseudomonas aeruginosa Z61 by twofold serial microbroth dilution method. In kind it is functional.
Test [9] deals with Mycobacterium avium. Put plainly: Antimycobacterial activity against isoniazid-resistant Mycobacterium avium at 20 ug/disk by disk diffusion assay. It is filed as functional, organism-based.
The test system of test [10] is Mycobacterium avium. Put plainly: Antimycobacterial activity against isoniazid-resistant Mycobacterium avium at 10 ug/disk by disk diffusion assay. In kind it is functional, organism-based.
In test [11] the test system is Mycobacterium tuberculosis. Put plainly: Antimycobacterial activity against Mycobacterium tuberculosis at 20 ug/disk by disk diffusion assay. In kind it is functional, organism-based.
Test [12] relates to Mycobacterium tuberculosis. Put plainly: Antimycobacterial activity against Mycobacterium tuberculosis at 10 ug/disk by disk diffusion assay. It is filed as functional, organism-based.

Take `C=C[C@H](O)C#CC#C[C@@H](O)/C=C\CCCCCCCCOC(C)=O`: the MIC in the test on Candida albicans was more than 50 µg/mL; in the test on Bacillus subtilis it was 25 µg/mL (≈ 75.2 µM); against Staphylococcus aureus [1] it was 50 µg/mL (≈ 150 µM); with Escherichia coli [2], more than 50 µg/mL; with Staphylococcus aureus [3] it was more than 50 µg/mL; in the test on Escherichia coli [6] it was more than 50 µg/mL. Besides, the MIC in the test on Pseudomonas aeruginosa [7] and with Pseudomonas aeruginosa [8] was more than 50 µg/mL each time. In addition, the outcome (with Mycobacterium avium [4]; in test [5]; with Mycobacterium avium [9]) was Active.

In the case of `NNC(=O)c1ccncc1`, the result in the test on Mycobacterium avium [10], in the test on Mycobacterium avium [4] and in the test on Mycobacterium avium [9] was inactive. Also, the result in test [5], in test [11] and in test [12] was Active.

On to `C=C[C@@H](O)C#CC#C[C@@H](O)/C=C\CCCCCCC` [FALCARINDIOL], for which the MIC was 25 µg/mL (≈ 96 µM) with Candida albicans; 6.25 µg/mL (≈ 24 µM) in the test on Bacillus subtilis; 25 µg/mL (≈ 96 µM) with Staphylococcus aureus [1]; 25 µg/mL (≈ 96 µM) against Escherichia coli [2]; 25 µg/mL (≈ 96 µM) against Staphylococcus aureus [3]; more than 50 µg/mL against Escherichia coli [6]. For the same molecule, the MIC is more than 50 µg/mL against Pseudomonas aeruginosa [7] and 50 µg/mL (≈ 192 µM) against Pseudomonas aeruginosa [8]. Besides, the outcome (in the test on Mycobacterium avium [4]; in test [5]; with Mycobacterium avium [9]) was Active.

With `C=C[C@H](O)C#CC#CC/C=C\CCCCCCC` [FALCARINOL], the minimal inhibitory concentration (MIC) was 6.25 µg/mL (≈ 25.6 µM) with Candida albicans; 3.1 µg/mL (≈ 12.7 µM) against Bacillus subtilis; 3.1 µg/mL (≈ 12.7 µM) against Staphylococcus aureus [1]; 6.25 µg/mL (≈ 25.6 µM) in the test on Escherichia coli [2]; 3.1 µg/mL (≈ 12.7 µM) against Staphylococcus aureus [3]; more than 50 µg/mL in the test with Escherichia coli [6]. For the same molecule, the minimal inhibitory concentration (MIC) was more than 50 µg/mL against Pseudomonas aeruginosa [7] and 6.25 µg/mL (≈ 25.6 µM) in the test with Pseudomonas aeruginosa [8]. For the same molecule, the result (in the test with Mycobacterium avium [4]; in test [5]; in test [11]; in the test on Mycobacterium avium [9]) was Active.

On to `COc1cccc(OC)c1C(=O)N[C@@H]1C(=O)N2[C@@H]1SC(C)(C)[C@@H]2C(=O)O` [METHICILLIN], for which the MIC against Candida albicans is more than 100 µg/mL; against Bacillus subtilis, 100 µg/mL (≈ 263 µM); against Staphylococcus aureus [1], 1.6 µg/mL (≈ 4.21 µM); in the test with Escherichia coli [2], 1.6 µg/mL (≈ 4.21 µM); in the test with Escherichia coli [6], more than 100 µg/mL; against Pseudomonas aeruginosa [7], more than 100 µg/mL. Also, the minimal inhibitory concentration (MIC) against Pseudomonas aeruginosa [8] came to 3.1 µg/mL (≈ 8.15 µM).

Turning to `CC[C@H](O)C#CC#C[C@@H](O)/C=C\CCCCCCCCOC(C)=O` [OPLOPANDIOL ACETATE], the minimum inhibitory concentration (MIC) was more than 50 µg/mL with Candida albicans; 25 µg/mL in the test on Bacillus subtilis; 50 µg/mL in the test on Staphylococcus aureus [1]; more than 50 µg/mL with Escherichia coli [2]; more than 50 µg/mL against Staphylococcus aureus [3]; more than 50 µg/mL in the test on Escherichia coli [6]. The minimum inhibitory concentration (MIC) against Pseudomonas aeruginosa [7] and with Pseudomonas aeruginosa [8] was more than 50 µg/mL each time. The outcome (with Mycobacterium avium [4]; in [5]; in test [11]; with Mycobacterium avium [9]) was Active.

Take `CCCCCCC/C=C\[C@H](O)C#CC#C[C@@H](O)CC` [OPLOPANDIOL]: the MIC was 12.5 µg/mL (≈ 47.6 µM) in the test on Candida albicans; 6.25 µg/mL (≈ 23.8 µM) with Bacillus subtilis; 6.25 µg/mL (≈ 23.8 µM) against Staphylococcus aureus [1]; 6.25 µg/mL (≈ 23.8 µM) in the test on Escherichia coli [2]; 6.25 µg/mL (≈ 23.8 µM) against Staphylococcus aureus [3]; more than 50 µg/mL in the test with Escherichia coli [6]. The minimal inhibitory concentration (MIC) against Pseudomonas aeruginosa [7] and against Pseudomonas aeruginosa [8] was more than 50 µg/mL each time. The outcome (in the test with Mycobacterium avium [4]; in test [5]) was Active.

Turning to GENTAMICIN, the MIC with Bacillus subtilis was 1.25 µg/mL; with Staphylococcus aureus [1], 0.6 µg/mL; in the test on Escherichia coli [2], 0.6 µg/mL; in the test on Staphylococcus aureus [3], more than 10 µg/mL; in the test with Escherichia coli [6], 1.25 µg/mL; against Pseudomonas aeruginosa [7], 1.25 µg/mL. The molecule also came in with an MIC in the test with Pseudomonas aeruginosa [8] of 0.6 µg/mL.
